Assay [1] has as its system Xanthomonas oryzae pv. oryzae (Xoo). The assay is described as follows: microbe, parasite or virus in culture. It counts as cell-based. Conditions: for inhibition at 50 µg/mL / inhibition at 100 µg/mL / EC50: Xanthomonas oryzae; for inhibition at 50 µg/mL / inhibition at 100 µg/mL: read-out: Antibacterial activity (inhibition rate) against Xoo; for EC50: read-out: EC50 against Xoo; for Antibacterial activity (inhibition rate) against Xoo / EC50 against Xoo: in vitro; for Antibacterial activity (inhibition rate) against Xoo: strain PXO99A, average of three replicates; for EC50 against Xoo: five concentrations 100-6.25 μg/mL.

The test system of assay [2] is Xanthomonas axonopodis pv. citri (Xac). The assay is described as follows: microbe, parasite or virus in culture. Particulars: for inhibition at 50 µg/mL / inhibition at 100 µg/mL / EC50: Xanthomonas axonopodis; for inhibition at 50 µg/mL / inhibition at 100 µg/mL: read-out: Antibacterial activity (inhibition rate) against Xac; for EC50: read-out: EC50 against Xac. In kind it is cell-based.

Molecules are shown by their SMILES. Values after ≈ are worked out from the molar mass of the structure shown. Values joined by “and” are separate entries in the source; they are usually repeats but may differ in a detail not shown here. Identical values can stand only once.

What is called inhibition is the percentage by which the read-out fell short of the control. What is called EC50 is the concentration that produces a half-maximal response. As to `COP(=O)(OC)Oc1ccccc1/C=C/C(=O)/C=C/c1ccc(Cl)cc1` [3a, 2-((1E,4E)-5-(4-chlorophenyl)-3-oxopenta-1,4-dien-1-yl)phenyl dimethyl phosphate], in assay [1], the inhibition at 50 µg/mL worked out at 83.9 ± 2.1%, the inhibition at 100 µg/mL came out at 85 ± 2.1% and the half-maximal effective concentration (EC50) came out at 35.8 µg/mL. Further, in assay [2], the inhibition at 50 µg/mL was 50.6 ± 4.6%, the inhibition at 100 µg/mL was 59.7 ± 1.8% and the EC50 was determined as 45 µg/mL.

With `CCOP(=O)(OCC)Oc1ccccc1/C=C/C(=O)/C=C/c1ccc(Cl)cc1` [3b], in assay [1], the inhibition at 50 µg/mL amounted to 35 ± 4.4% and the inhibition at 100 µg/mL amounted to 37 ± 2.9%. In assay [2], the inhibition at 50 µg/mL was 53 ± 3.6%, the inhibition at 100 µg/mL was found to be 53.1 ± 3.2% and the EC50 turned out to be 34.1 µg/mL (≈ 81 µM).

As for `COP(=O)(OC)Oc1ccccc1/C=C/C(=O)/C=C/c1ccc(Br)cc1` [3n], in assay [1], the inhibition at 50 µg/mL worked out at 18.8 ± 1.1% and the inhibition at 100 µg/mL amounted to 23.8 ± 5.3%. Besides, in assay [2], the inhibition at 50 µg/mL amounted to 2.5 ± 0.9% and the inhibition at 100 µg/mL was 16.1 ± 3.8%.

Turning to `CCOP(=O)(OCC)Oc1ccccc1/C=C/C(=O)/C=C/c1ccc(Br)cc1` [3o], the inhibition at 50 µg/mL came to 19.9 ± 3.7% in assay [1] and 23 ± 2.7% in assay [2]. Besides, the inhibition at 100 µg/mL was determined as 31.4 ± 2.2% in assay [1] and 28.4 ± 3.4% in assay [2].

With `COP(=O)(OC)Oc1ccccc1/C=C/C(=O)/C=C/c1ccccc1` [3l], in assay [1], the inhibition at 50 µg/mL was found to be 16.7 ± 5.3% and the inhibition at 100 µg/mL was found to be 35.9 ± 2.9%. Further, in assay [2], the inhibition at 50 µg/mL turned out to be 29.2 ± 4.3% and the inhibition at 100 µg/mL stood at 49.4 ± 8%.

`CCOP(=O)(OCC)Oc1ccccc1/C=C/C(=O)/C=C/c1cccc(C)c1` [3s]: in assay [1], the inhibition at 50 µg/mL worked out at 12.5 ± 6% and the inhibition at 100 µg/mL is 29.5 ± 4.8%. Further, in assay [2], the inhibition at 50 µg/mL came out at 8.5 ± 3.8% and the inhibition at 100 µg/mL was 27.4 ± 1.7%.

As for `COP(=O)(OC)Oc1ccccc1/C=C/C(=O)/C=C/c1cccc(C(F)(F)F)c1` [3p], the inhibition at 50 µg/mL in assay [1] is 21.8 ± 1.5%; in assay [2] it was 11.5 ± 1.8%. Further, the inhibition at 100 µg/mL in assay [1] is 25 ± 3.1%; in assay [2], 20.2 ± 0.8%.

For the compound `CCOP(=O)(OCC)Oc1ccccc1/C=C/C(=O)/C=C/c1ccc([N+](=O)[O-])cc1` [3j], in assay [1], the inhibition at 50 µg/mL turned out to be 81.4 ± 0.9%, the inhibition at 100 µg/mL is 85.5 ± 0.8% and the EC50 was 17.7 µg/mL (≈ 41 µM). In assay [2], the inhibition at 50 µg/mL came to 52.9 ± 5.4% and the inhibition at 100 µg/mL is 61.9 ± 1.1%.

`COP(=O)(OC)Oc1ccccc1/C=C/C(=O)/C=C/c1ccccc1Cl` [3e]: in assay [1], the inhibition at 50 µg/mL was 65.3 ± 1.9%, the inhibition at 100 µg/mL was determined as 69.4 ± 0.6% and the EC50 came out at 46 µg/mL (≈ 117 µM). In assay [2], the inhibition at 50 µg/mL amounted to 67.9 ± 4.3%, the inhibition at 100 µg/mL turned out to be 77.6 ± 2.8% and the 50% effective concentration (EC50) was 22.9 µg/mL (≈ 58.3 µM).

Turning to `CCOP(=O)(OCC)Oc1ccccc1/C=C/C(=O)/C=C/c1cccc(C(F)(F)F)c1` [3q], the inhibition at 50 µg/mL worked out at 20.3 ± 3.1% in assay [1] and 5.4 ± 2.6% in assay [2]. In addition, the inhibition at 100 µg/mL stood at 31.5 ± 2.1% in assay [1] and 25.4 ± 0.5% in assay [2].

Take `COP(=O)(OC)Oc1ccccc1/C=C/C(=O)/C=C/c1ccc([N+](=O)[O-])cc1` [3i]: in assay [1], the inhibition at 50 µg/mL worked out at 43.9% and the inhibition at 100 µg/mL worked out at 56.6 ± 1.3%. Further, in assay [2], the inhibition at 50 µg/mL worked out at 50.8 ± 4.2% and the inhibition at 100 µg/mL worked out at 50.9 ± 4.5%.

For the compound `Nc1nnc([S-])s1.Nc1nnc([S-])s1.[Cu+2]` [Thiodiazole-copper, thiodiazole-copper, reference compound], the “Antibacterial activity (inhibition rate) against Xoo” value in assay [1] (50 μg/mL) is given as 37.2 ± 3.2%; in assay [1] (100 μg/mL) it was 50.2 ± 0.9%. Also, the “EC50 against Xoo” value in assay [1] stood at 78.7 µg/mL. The “EC50 against Xac” value in assay [2] worked out at 87.9 µg/mL.

As for `CCOP(=O)(OCC)Oc1ccccc1/C=C/C(=O)/C=C/c1cccc([N+](=O)[O-])c1` [3h], in assay [1], the inhibition at 50 µg/mL stood at 78.1 ± 1.4%, the inhibition at 100 µg/mL was 86.5 ± 1.9% and the EC50 worked out at 19.1 µg/mL (≈ 44.3 µM). In assay [2], the inhibition at 50 µg/mL is 48.5 ± 4.2% and the inhibition at 100 µg/mL stood at 54.8 ± 3.8%.

On to `CCOP(=O)(OCC)Oc1ccccc1/C=C/C(=O)/C=C/c1ccccc1` [3m], for which, in assay [1], the inhibition at 50 µg/mL stood at 2.5 ± 5.7% and the inhibition at 100 µg/mL amounted to 28.7 ± 9.1%. In assay [2], the inhibition at 50 µg/mL was determined as 18 ± 2.9% and the inhibition at 100 µg/mL worked out at 27.4 ± 0.6%.

With `CCOP(=O)(OCC)Oc1ccccc1/C=C/C(=O)/C=C/c1ccc(OC)cc1` [3d], in assay [1], the inhibition at 50 µg/mL amounted to 32.6 ± 2.2% and the inhibition at 100 µg/mL was 35.7 ± 1.1%. Moreover, in assay [2], the inhibition at 50 µg/mL was found to be 34.9 ± 1.5% and the inhibition at 100 µg/mL was determined as 46.4 ± 1.1%.

With `CCOP(=O)(OCC)Oc1ccccc1/C=C/C(=O)/C=C/c1ccc(C)cc1` [3k], in assay [1], the inhibition at 50 µg/mL amounted to 39.4 ± 0.4% and the inhibition at 100 µg/mL was determined as 41.5 ± 0.6%. Besides, in assay [2], the inhibition at 50 µg/mL is 47.7 ± 3.1% and the inhibition at 100 µg/mL amounted to 52.6 ± 2.9%.

In the case of `COc1ccc(/C=C/C(=O)/C=C/c2ccccc2OP(=O)(OC)OC)cc1` [3c], the inhibition at 50 µg/mL in assay [1] worked out at 23.4 ± 0.9%; in assay [2], 53.5 ± 2.5%. For the same compound, the inhibition at 100 µg/mL in assay [1] was determined as 25.5 ± 0.9%; in assay [2], 57.5 ± 2.1%.

For `COP(=O)(OC)Oc1ccccc1/C=C/C(=O)/C=C/c1cccc(C)c1` [3r], the values for the inhibition at 50 µg/mL in assay [1] and in assay [2] were 21 ± 2.2% and 10.3 ± 2.5%, respectively. For the same compound, the inhibition at 100 µg/mL in assay [1] amounted to 42.4 ± 1.4%; in assay [2], 20.5 ± 1.2%.

For `S=c1[nH]nc(NCNc2n[nH]c(=S)s2)s1` [Bismerthiazol, bismerthiazol, reference compound], the “Antibacterial activity (inhibition rate) against Xoo” value in assay [1] (50 μg/mL) is recorded as 45.2 ± 2.0%. In addition, the “Antibacterial activity (inhibition rate) against Xoo” value in assay [1] (100 μg/mL) amounted to 64.9 ± 3.9%. Further, the “EC50 against Xoo” value in assay [1] stood at 58.8 µg/mL (≈ 211 µM). For the same compound, in assay [2], the “Antibacterial activity (inhibition rate) against Xac” value was 70.3±2.8% and 54.9 ± 5.5%; the “EC50 against Xac” value came out at 44.5 µg/mL (≈ 160 µM).

Take `CCOP(=O)(OCC)Oc1ccccc1/C=C/C(=O)/C=C/c1ccccc1Cl` [3f]: in assay [1], the inhibition at 50 µg/mL was 35.7 ± 3.4% and the inhibition at 100 µg/mL amounted to 36.4 ± 3.1%. Moreover, in assay [2], the inhibition at 50 µg/mL is 52.9 ± 2.1% and the inhibition at 100 µg/mL was 53.1 ± 2.1%.

These data come from article PMC6429309 (Molecules, 2019).
